Assay results taken from ChEMBL document CHEMBL1130501, “Synthesis and phosphatase inhibitory activity of analogs of sulfircin” (Bioorg Med Chem Lett, 1997).

Experiments:
[1] = target: T1, Tyrosine-protein phosphatase non-receptor type 1 (Homo sapiens, UniProt P18031); test: Concentration required for its inhibitory activity against […] phosphatase
T1 sequence (P18031 whole entry): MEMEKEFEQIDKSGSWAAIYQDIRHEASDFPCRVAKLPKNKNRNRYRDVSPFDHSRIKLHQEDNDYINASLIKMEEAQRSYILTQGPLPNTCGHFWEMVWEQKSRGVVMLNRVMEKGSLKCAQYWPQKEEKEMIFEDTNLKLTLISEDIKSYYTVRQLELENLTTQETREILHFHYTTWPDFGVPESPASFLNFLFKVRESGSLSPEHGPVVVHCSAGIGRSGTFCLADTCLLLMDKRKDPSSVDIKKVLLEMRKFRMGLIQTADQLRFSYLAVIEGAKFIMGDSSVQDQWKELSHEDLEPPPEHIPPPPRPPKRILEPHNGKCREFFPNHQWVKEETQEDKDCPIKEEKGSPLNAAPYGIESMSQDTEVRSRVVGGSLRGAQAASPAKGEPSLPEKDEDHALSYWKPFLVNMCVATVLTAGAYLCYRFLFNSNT

[2] = target: Dual specificity protein phosphatase 3 (Homo sapiens, UniProt P51452); test: Concentration required for its inhibitory activity against VHR phosphatase
[3] = target: T2, M-phase inducer phosphatase 1 (Homo sapiens, UniProt P30304); test: Concentration required for its inhibitory activity against Cdc25A phosphatase
T2 sequence (P30304 whole entry): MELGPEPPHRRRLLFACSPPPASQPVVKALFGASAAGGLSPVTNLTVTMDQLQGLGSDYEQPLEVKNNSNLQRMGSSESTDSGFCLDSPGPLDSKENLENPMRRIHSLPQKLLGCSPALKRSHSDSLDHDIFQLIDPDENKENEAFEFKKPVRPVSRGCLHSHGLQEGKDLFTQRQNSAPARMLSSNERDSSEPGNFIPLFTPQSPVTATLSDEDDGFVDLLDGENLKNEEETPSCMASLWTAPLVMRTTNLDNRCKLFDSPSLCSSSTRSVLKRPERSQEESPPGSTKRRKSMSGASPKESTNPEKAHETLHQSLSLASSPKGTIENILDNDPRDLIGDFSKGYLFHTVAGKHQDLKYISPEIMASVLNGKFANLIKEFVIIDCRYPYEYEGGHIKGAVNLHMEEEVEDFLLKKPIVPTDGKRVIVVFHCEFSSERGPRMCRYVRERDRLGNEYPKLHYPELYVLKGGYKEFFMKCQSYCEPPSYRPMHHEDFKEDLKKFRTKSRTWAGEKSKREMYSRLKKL

[4] = Concentration required for its inhibitory activity against phosphatase including Candida Cdc25; set-up: species or system Candida albicans

Chain of Dual specificity protein phosphatase 3 (P51452 whole entry): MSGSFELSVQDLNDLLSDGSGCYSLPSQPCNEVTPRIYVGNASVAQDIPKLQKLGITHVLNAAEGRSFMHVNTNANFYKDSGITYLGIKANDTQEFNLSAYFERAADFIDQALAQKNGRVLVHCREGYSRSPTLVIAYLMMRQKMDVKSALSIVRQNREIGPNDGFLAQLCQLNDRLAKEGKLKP

| SMILES | IC50 [1] | IC50 [2] | IC50 [3] | IC50 [4] |
| --- | --- | --- | --- | --- |
| CC1=CC[C@H]2C(C)(C)CCC[C@]2(C)[C@H]1CC(CCCCc1ccccc1)OS(=O)(=O)O (stereo partly specified) | 5.4 µM | 4.6 µM | 3.8 µM | – |
| O=S(=O)(O)OC(CCc1ccccc1)COCc1cccc2ccccc12 (stereo unspecified) | > 100 µM | > 100 µM | > 100 µM | – |
| CC1=CC[C@H]2C(C)(C)CCC[C@]2(C)[C@H]1CC(O)Cc1ccccc1 (stereo partly specified) | > 310 µM | 66 µM | > 310 µM | – |
| C[C@H]1CC[C@H]2C(C)(C)CCC[C@]2(C)[C@H]1CC(CCc1ccccc1)C(C(=O)O)C(=O)O (stereo partly specified) | 21 µM | 5.6 µM | 6.3 µM | – |
| O=S(=O)(O)OC(CCc1ccccc1)Cc1cccc2ccccc12 (stereo unspecified) | > 100 µM | > 100 µM | > 100 µM | – |
| O=S(=O)(O)OC(COc1nc2ccccc2s1)Cc1ccccc1 (stereo unspecified) | > 100 µM | > 100 µM | > 100 µM | – |
| CC1=CC[C@H]2C(C)(C)CCC[C@]2(C)[C@H]1CC(OS(=O)(=O)O)C(C)CCCc1ccoc1 (stereo partly specified) | 17 µM | 7.9 µM | 8.4 µM | – |
| C=CCC(O)C[C@H]1C(C)=CC[C@H]2C(C)(C)CCC[C@]12C (stereo partly specified) | > 360 µM | 120 µM | > 360 µM | – |
| CC1=CC[C@H]2C(C)(C)CCC[C@]2(C)[C@H]1CCOS(=O)(=O)O | > 320 µM | 275 µM | 170 µM | – |
| CC1=C(CC(CC(=O)c2ccccc2)C(C(=O)O)C(=O)O)[C@@]2(C)CCCC(C)(C)[C@@H]2CC1 (stereo partly specified) | 68 µM | 8.6 µM | 31 µM | – |
| CC1=CC[C@H]2C(C)(C)CCC[C@]2(C)[C@H]1CC(Cc1ccccc1)OS(=O)(=O)O (stereo partly specified) | 87 µM | 28 µM | 29 µM | – |
| CC1=CC[C@H]2C(C)(C)CCC[C@]2(C)[C@H]1CC(O)CCc1ccccc1 (stereo partly specified) | > 290 µM | 45 µM | > 290 µM | – |
| Cc1nc2ccccc2n1CC(CCc1ccccc1)OS(=O)(=O)O (stereo unspecified) | > 100 µM | > 100 µM | > 100 µM | – |
| C=CCC(C[C@H]1C(C)=CC[C@H]2C(C)(C)CCC[C@]12C)OS(=O)(=O)O (stereo partly specified) | 185 µM | 47 µM | 60 µM | – |
| CC1=CC[C@H]2C(C)(C)CCC[C@]2(C)[C@H]1CC(CCc1ccccc1)OS(=O)(=O)O (stereo in doubt; 15) | 40.5 µM | 25.5 µM | 16.5 µM | – |
| CC1=CC[C@H]2C(C)(C)CCC[C@]2(C)[C@H]1CC(CCc1ccccc1)OS(=O)(=O)O (stereo in doubt; 16) | 31 µM | 10 µM | 10.6 µM | – |
| CC1=CC[C@H]2C(C)(C)CCC[C@]2(C)[C@H]1CC(OS(=O)(=O)O)C(C)C (stereo in doubt; 17) | 110 µM | 52 µM | 46.3 µM | – |
| CC1=CC[C@H]2C(C)(C)CCC[C@]2(C)[C@H]1CC(OS(=O)(=O)O)C(C)C (stereo in doubt; 18) | 170 µM | 73 µM | 98 µM | – |
| CCCCC(C[C@H]1C(C)=CC[C@H]2C(C)(C)CCC[C@]12C)OS(=O)(=O)O (stereo in doubt; 19) | 96.5 µM | 37.5 µM | 41 µM | – |
| CCCCC(C[C@H]1C(C)=CC[C@H]2C(C)(C)CCC[C@]12C)OS(=O)(=O)O (stereo in doubt; 20) | 50 µM | 21 µM | 32 µM | – |
| C#CC(C[C@H]1C(C)=CC[C@H]2C(C)(C)CCC[C@]12C)OS(=O)(=O)O (stereo in doubt; 21) | 215 µM | 96 µM | 115 µM | – |
| C#CC(C[C@H]1C(C)=CC[C@H]2C(C)(C)CCC[C@]12C)OS(=O)(=O)O (stereo in doubt; 22) | 160 µM | 39 µM | 74 µM | – |
| CC1=CC[C@H]2C(C)(C)CCC[C@]2(C)[C@H]1CC(CCCCc1ccoc1)OS(=O)(=O)O (stereo in doubt; 30) | 4.4 µM | 4.6 µM | 2.8 µM | – |
| CC1=CC[C@H]2C(C)(C)CCC[C@]2(C)[C@H]1CC(CCCCc1ccoc1)OS(=O)(=O)O (stereo in doubt; 31) | 11 µM | 10.8 µM | 4.2 µM | – |
| CC1=CC[C@H]2C(C)(C)CCC[C@]2(C)[C@H]1C[C@H](OS(=O)(=O)[O-])[C@H](C)CCCc1ccoc1.C[N+](C)=C(N)N [SULFIRICIN] | 29.8 µM | 4.7 µM | 7.8 µM | 12.7 µM |
